Values quoted from earlier work, collected in patent US5846980A, “N-(benzhydryloxyalkyl)-4-(carboxy/carbamoyl methyl)-piperidine derivatives as antidepressants” (Cooperation Pharmaceutique Francaise, priority 1994, dated 1998).

Legend:
[1] = test system: antidepressant activity
[2] = test system: dopamine re-uptake
[3] = test system: noradrenaline re-uptake
[4] = test system: ptosis and hypothermia induced by reserpine; conditions: in vivo
[5] = test system: sleep induced by phenobarbital; conditions: in vivo
[6] = test system: motor activity of the animals; conditions: in vivo
[7] = test system: stereotypic behaviors; conditions: in vivo
[8] = test system: immobility time of the mouse

CN1Cc2c(N)cccc2C(c2ccccc2)C1 (stereo not drawn) [1,2,3,4-tetrahydro-2-methyl-4-phenyl-8-isoquinolinamine]
antidepressant activity in human clinical studies [1]: this effect is demonstrated in human clinical studies

c1ccc2sc(C3(N4CCCCC4)CCCCC3)cc2c1 [1-[1-(2-Benzo[b]thiophenyl)cyclohexyl]piperidine]
inhibition of dopamine re-uptake [2]: inhibit dopamine and noradrenaline re-uptake
inhibition of noradrenaline re-uptake [3]: inhibit dopamine and noradrenaline re-uptake

1-[2-(Diphenylmethoxy)ethyl]-4-(3-phenylpropenyl)piperazine
antagonism of the hypothermia induced by reserpine [4]: antagonizes neither the ptosis nor the hypothermia induced by reserpine
antagonism of the ptosis induced by reserpine [4]: antagonizes neither the ptosis nor the hypothermia induced by reserpine
sleep induced by phenobarbital [5]: decreases the sleep induced by phenobarbital
motor activity of the animals [6]: increases the motor activity of the animals
stereotypic behaviors [7]: induces stereotypic behaviors
immobility time in the behavioral despair test [8]: decreases the immobility time of the mouse
